Measured values published in PubChem BioAssay (NCI).
Where “and” joins values, the source holds several entries; their conditions need not be identical. Equal entries are not always repeated.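 Step 1: Grow cells in 96-well plates. Step 2: Expose to compound for 48 hours at 5 concentrations. Step 3: Interpolate endpoints linearly; if unreached, use highest concentration. GI50 is the concentration that inhibits growth by half. TGI is the concentration that stops growth completely.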

Tests used:
Experiment in all cases: NCI anticancer screen, dose series, 48 h
[1] = system: 786-0 renal
[2] = system: EKVX NSCLC
[3] = system: HOP-62 NSCLC
[4] = system: OVCAR-4 ovarian
[5] = system: PC-3 prostate
[6] = system: SF-295 CNS
[7] = system: SK-MEL-28 melanoma
[8] = system: SK-OV-3 ovarian
[9] = system: UO-31 renal
[10] = system: K-562 leukemia

Compound | TGI [1] | TGI [2] | TGI [3] | TGI [4] | TGI [5] | TGI [6] | TGI [7] | TGI [8] | TGI [9] | TGI [10] | GI50 [10]
COC(=O)C1(C)CCCC2(C)C3CCC4CC3(C=C4CO)CCC12 (stereo not drawn) | > 100 µM | > 100 µM | > 100 µM | > 100 µM | > 100 µM | > 100 µM | > 100 µM | > 100 µM | > 100 µM |  | 
CCOC(=O)C(=CNC(=S)Nc1c(CC)cccc1CC)C(=O)OCC | > 100 µM | > 100 µM | > 100 µM | > 100 µM | > 100 µM | > 100 µM | > 100 µM | > 100 µM | > 100 µM | > 100 µM | 
Cc1cc(-c2nc3cc(O)ccc3s2)ccc1N | > 100 µM | 60.1 µM | > 100 µM | > 100 µM | > 100 µM | 73.4 µM | 75.5 µM | 77.1 µM | 78.8 µM | > 100 µM | 
COc1ccc2c(c1)N=C1CSC(c3c(Cl)cccc3[N+](=O)[O-])N1C2 (stereo not drawn) | > 100 µM | > 100 µM | > 100 µM | > 100 µM | > 100 µM | > 100 µM | > 100 µM | > 100 µM | > 100 µM | > 100 µM | 
NS(=O)(=O)c1nnc(/N=C(/CCC(=O)O)C(=O)O)s1 | > 100 µM | > 100 µM | > 100 µM | > 100 µM | > 100 µM | > 100 µM | > 100 µM | > 100 µM | > 100 µM | > 100 µM | 
Cc1c(F)c(N)c2c(=O)cc(-c3ccc(NC(=O)[C@@H](N)CCCCN)c(F)c3)oc2c1F | 24 µM and 26.4 µM | 28.4 µM and 22.6 µM | 27.3 µM and 24 µM | 32.7 µM and 26.7 µM | 32 µM and 29.3 µM | 28.5 µM and 32.3 µM | 35.1 µM and 29 µM | 31.6 µM and 32.6 µM | 33.7 µM and 22.1 µM | 36.4 µM and 10.4 µM | 0.652 µM and 0.278 µM
C/C(=N/NC(=S)NCCc1ccccn1)c1cnccn1 | 57.2 µM | > 100 µM | > 100 µM | > 100 µM | > 100 µM | 63.8 µM | > 100 µM | 70.5 µM | 90.2 µM |  | 
O=C1NC(=NC2CCCCC2)C2(CCN(CCCC3(c4ccc(F)cc4)OCCO3)CC2)N1c1ccccc1 | 30.2 µM | 36.2 µM | 31.8 µM | 50.2 µM | 38.4 µM | 35.1 µM | 35.6 µM | 42.7 µM | 25.9 µM |  | 
Clc1ccccc1-c1nnc2c(-c3ccccc3)nc3ccccc3n12 | > 100 µM | > 100 µM | > 100 µM | > 100 µM | > 100 µM |  | > 100 µM | > 100 µM |  | > 100 µM | 
OC(C/C(=N\N=C(/CC(O)(C(F)(F)F)C(F)(F)F)c1ccccc1)c1ccccc1)(C(F)(F)F)C(F)(F)F | > 10 µM | > 10 µM | > 10 µM | > 10 µM | > 10 µM | > 10 µM | > 10 µM | > 10 µM |  | > 10 µM | 
O=C1C(=C(C(=O)c2ccccc2)C(=O)c2ccccc2)OC(c2ccccc2)=C1C(=O)c1ccccc1 | 20 µM | 34.8 µM | 15.6 µM | 9.2 µM | > 100 µM | 32.1 µM | 59 µM | 34.6 µM | 26.7 µM | 95 µM | 
CC(C)(C)c1cc(C(=O)/C=C/c2ccc3c(c2)CCO3)cc(C(C)(C)C)c1O | 11.2 µM | > 100 µM | > 93.7 µM |  | 4.8 µM |  | > 100 µM | > 80.3 µM | > 54 µM | > 100 µM | 
COc1ccc(NS(=O)c2ccc(OC)cc2)cc1 (stereo not drawn) | > 100 µM | > 100 µM | > 100 µM | > 100 µM |  | > 100 µM | > 100 µM |  | 48.5 µM | > 100 µM | 
Nc1ccccc1OCc1cc(=O)c(OCc2ccccc2)co1 | 76.5 µM | > 100 µM | > 100 µM | > 100 µM | > 100 µM | 95.1 µM | > 100 µM | 83.7 µM |  | > 100 µM | 
CC(C)(C)N(Cc1ccoc1)C(=O)/C=C\S(=O)c1ccccc1 (stereo not drawn) | 67 µM | 75.5 µM | 36.6 µM | > 100 µM | 27.8 µM | > 100 µM | 44.4 µM | 77.6 µM | 27.6 µM | > 100 µM | 
CC(=O)OC[C@@H](OC(C)=O)[C@@H](OC(C)=O)[C@H]1OC[C@@H]2C[C@H]([C@H]1OC(C)=O)N(Cc1ccccc1)O2 | > 100 µM | > 100 µM | > 100 µM | > 100 µM | > 100 µM | > 100 µM | > 100 µM | > 100 µM | > 100 µM | > 100 µM | 
CC(=O)N1C2=CCCC2(C)c2ccccc21 (stereo not drawn) | > 100 µM | > 100 µM | > 100 µM | > 100 µM | > 100 µM | > 100 µM | > 100 µM | > 100 µM | > 100 µM | > 100 µM | 
CCN1C[C@]2(C)CC[C@H](OCc3ccccc3)C34C5C[C@@H]6CC[C@](O)(C(C[C@@H]32)C14)C5[C@H]6OCc1ccccc1 (stereo partly drawn) | > 100 µM | > 100 µM | > 100 µM | > 100 µM | > 100 µM | > 100 µM | > 100 µM | > 100 µM | > 100 µM | > 100 µM | 
CC1=NN(C(=O)c2ccccc2O)C(c2ccccc2Cl)C1C(=O)Nc1ccccc1 (stereo not drawn) | > 44.9 µM | > 100 µM | > 100 µM | > 100 µM | > 100 µM | > 100 µM | > 100 µM | > 100 µM |  | > 100 µM | 
O=C(n1c(=O)n(-c2ccc(Cl)cc2)c(=O)n1C(=O)C(Cl)(Cl)Cl)C(Cl)(Cl)Cl | > 100 µM | > 100 µM | > 100 µM | > 100 µM | > 100 µM | > 100 µM | > 100 µM | > 100 µM | > 100 µM | > 100 µM | 
Nc1cccc(C#Cc2cccc(C#Cc3cccc(N)n3)n2)n1 | > 100 µM | > 100 µM | > 100 µM | > 100 µM | > 100 µM | > 100 µM |  | > 100 µM | > 100 µM | > 100 µM | 
